The record followed here is US20100004333A1, “COMPOSITIONS AND METHODS FOR TREATING CARDIOVASCULAR DISORDERS” (priority 2004, published 2010).

The nature of series [1]: Oxidation of probucol or DTBP in hexane by 1e- and 2e-oxidants (HPLC, ion exchange chromatography). The class given is physicochemical. As to conditions: compound 1 mM in hexane, 60 min, 37° C.
Experiment in series [2]: as above
Type of series: physicochemical. As to conditions: for Depletion: compound 1 mM in hexane, 60 min, 37° C.; for SO4^2− in aqueous phase of reaction mixture: oxidized with 5-mol equivalent HOCl, antioxidant-free mixture 58±5 nmol. The protocol: All other reagents were of the highest quality available. Buffers were routinely filtered, argon-flushed and stored at 4° C. prior to use. Solutions of HOCl were prepared freshly before use by diluting reagent HOCl (Aldrich) into phosphate buffer (250 mM, pH 7.0) and standardizing with ε235 nm˜100 M^−1cm^−1 (hypochlorous acid) and ε290 nm˜300 M^−1cm^−1 (hypochlorite), as described in Journal of Physical Chemistry 1966, 70:3798-3805. Animals: New Zealand White rabbits (2.5-3 kg) were obtained from a commercial farm (Wauchope, NSW Australia) and housed individually for the entire study period. […] Feed and water were provided ad libitum for a period of 4 weeks judged to be sufficient time for circulating drug levels to reach a maximum (data not shown). […] The local ethics committee approved the study. Vascular reactivity: Perfused rabbit aortas were harvested and vascular reactivity studies performed as described in Circulation 2003, 107:2031-2036. Briefly, within 2 h of isolation, ring segments ˜5 mm in length were mounted in a myobath system (World Precision Instruments, Sarasota, Fla.) containing 20 mL of Krebs solution aerated at 37° C. with 5% CO2(g), and the dilatory response of half maximally norepinephrine pre-constricted rings to incremental doses of ACh (10^−9-10^−5 mol/L) determined. Where indicated, reagent HOCl (final concentration 400 μM) was added to the Krebs solution and the rings incubated for 5 min prior to thorough washing, pre-constriction and assessment of vessel relaxation. In some studies rings were incubated with probucol or DTBP for 10 min, washed thoroughly and then exposed to HOCl prior to assessing endothelium-dependent relaxation. A maximum of three consecutive sequences of constriction/relaxation were performed for each ring. Preparation of Aortic Homogenates: Aortic Rings Used in the Vascular Function Studies were removed and immediately cut into small pieces, frozen in liquid nitrogen, and then pulverized and homogenized as described. An aliquot (50 μL) of homogenate was removed for protein determination (BCA assay, Sigma) and the remainder extracted into methanol/hexane (5:1, v/v), the resulting hexane fraction dried and the residue suspended in isopropanol for analysis of probucol and its oxidation products. For cGMP determinations, aortic segments were treated with vehicle (control) or HOCl (400 μM) before addition of 1 μM ACh in the presence of 200 μM 3-isobutyl-1-methylxanthine and measurement of cGMP in the homogenate using a kit (Cayman Chemical, Ann Arbor, Mich.). Probucol oxidation studies: Probucol is a highly lipophilic compound (partition coefficient between octanol and water=[…]) that readily distributes into lipoproteins. To mimic the biological situation, oxidation reactions were therefore performed with probucol (or DTBP) dissolved in hexane (2 mL) to which aliquots of HOCl were added to give the final concentrations indicated. The heterogeneous mixtures were shaken vigorously at 37° C. for 60 min, then placed on ice after adding 1 mL water, the hexane phase removed, dried under vacuum and resuspended in isopropanol (200 μL) for HPLC analyses (see below). The aqueous phase was analyzed for the content of sulfate anion (SO4^2−) by ion exchange chromatography (see below). Analytical analyses: Probucol, DTBP, BP and DPQ were analyzed by gradient reversed-phase HPLC and quantified by peak area comparison with authentic standards. Under the conditions used, BP, DTBP, probucol and DPQ eluted at 12.5, 19.2, 20.8 and 28.4 min, respectively. Other oxidation products resolved by this HPLC system were also quantified by peak area comparison, using analytically pure samples obtained from semi-preparative (LC-18, 20 mm×25 cm, 5 μm) fractionation of the reaction mixture. Isolated samples were dried under vacuum, re-dissolved to a known concentration and assessed for purity by analytical HPLC (LC-18, 4.6 mm×25 cm, 5 μm) in combination with mass spectrometry (see below). […]

The nature of series [3]: Total aortic drug concentration in apoE−/− mice, 5 months. Type of series: in vivo. From the text:
ApoE−/− mouse model. Four groups of male apoE−/− mice (8-10 weeks, Animal Resources Centre, Perth, Australia) were fed a high fat diet based on Harlan Teklad diet TD88137±1% (wt/wt) probucol (96% purity, a gift from AstraZeneca, Sweden), 0.02% DTBP, or 0.02% BP (Polysciences, Warrington, Pa.) for 5 months. Tissue harvesting and analyses were done as described in Examples 1 and 3, using 15 and 10 mice of each group for biochemical and histological analyses, respectively. Histology and immunohistochemistry. Aortic lesion assessment was carried out at four sites (sinus, arch, thoracic and abdominal aorta) as described in Example 1. Immediately adjacent sections were employed for immunohistochemistry, using Mac-3 (macrophages, dilution 1:200, DAKO), PCNA (cell proliferation, dilution 1:500, DAKO) and anti-rat HO-1 monoclonal antibody (dilution 1:50, Santa Cruz) with avidin-biotin-horseradish peroxidase for signal detection (Vectorstain Elite ABC Kit, Vector Laboratories). Apoptosis was assessed using the TUNEL assay kit (Roche) according to the manufacture's instructions. Digital images were taken for quantitative morphometric analysis. Mac-3^+ areas were determined using Adobe Photoshop V6.0 by tracing. Total cell profiles, TUNEL^+ and PCNA^+ cells were counted manually at high magnification (40× objective). A single operator using coded samples performed all analyses blinded. Heme oxygenase. Heme oxygenase activity was determined in microsomes prepared from homogenized aortic tissue and assessed by HPLC as described in Circulation 2004, 110: 1855-1860. Statistics. All data are expressed as mean±SEM. One-way ANOVA and the student-Newman-Keul's test were used to evaluate differences between groups, with P<0.05 considered significant.

SMILES strings stand for the structures.

In the case of `CC(C)(C)c1cc(SSc2cc(C(C)(C)C)c(O)c(C(C)(C)C)c2)cc(C(C)(C)C)c1O` [DTBP, 4,4′-dithiobis(2,6-di-tert-butyl-phenol)], the “DPQ Yield” value in series [1] (oxidant AAPH 5 mM) came out at 0 ± 0 µM; in series [1] (oxidant Ce^4+ 5 mM), 89 ± 11 µM; in series [1] (oxidant Cu^2+ 5 mM), 0 ± 0 µM; in series [1] (oxidant Fe^2+/H2O2 5 mM), 4.8 ± 3.7 µM; in series [1] (oxidant H2O2 5 mM), 0 ± 0 µM; in series [1] (oxidant HOCl 5 mM) it was 91 ± 8.7 µM. For the same compound, the “DPQ Yield” value in series [1] (oxidant ONOO^− 5 mM) is 1.9 ± 0.6 µM; in series [1] (oxidant PbO2 5 mM) it was 145 ± 8.9 µM. Besides, the Depletion turned out to be 16 ± 1% in series [1] (oxidant Ce^4+ 5 mM); 0 ± 0% in series [1] (oxidant Cu^2+ 5 mM); 1 ± 0% in series [1] (oxidant Fe^2+/H2O2 5 mM); 0 ± 0% in series [1] (oxidant H2O2 5 mM); 6 ± 1% in series [1] (oxidant ONOO^− 5 mM); 99 ± 0.4% in series [1] (oxidant PbO2 5 mM). Further, the Depletion in series [2] (oxidant AAPH 5 mM) worked out at 0 ± 0%; in series [2] (oxidant HOCl 5 mM, air), 96 ± 3%. Besides, the “SO4^2− in aqueous phase of reaction mixture” value in series [2] came to 204 ± 43 nmol. In series [3] (male, apoE−/−, mouse, in vivo, 5 months), the “Total aortic drug concentration” value came out at 7.1±1.4 nmol/mg protein. The “Bioavailability relative to probucol” value in series [3] (mouse, in vivo) is on record as “clearly superior bioavailability compared to probucol”.

On to `CC(C)(Sc1cc(C(C)(C)C)c(O)c(C(C)(C)C)c1)Sc1cc(C(C)(C)C)c(O)c(C(C)(C)C)c1` [probucol], for which the “DPQ Yield” value in series [1] (oxidant AAPH 5 mM) is 0 ± 0 µM; in series [1] (oxidant Ce^4+ 5 mM) it was 78 ± 7.9 µM; in series [1] (oxidant Cu^2+ 5 mM), 0.9 ± 0.1 µM; in series [1] (oxidant Fe^2+/H2O2 5 mM) it was 8.7 ± 1.7 µM; in series [1] (oxidant H2O2 5 mM), 0 ± 0 µM; in series [1] (oxidant HOCl 5 mM), 102 ± 11 µM. The figures for the “DPQ Yield” value in series [1] (oxidant ONOO^− 5 mM) and in series [1] (oxidant PbO2 5 mM) were 2.1 ± 0.2 µM and 92 ± 21 µM, respectively. The Depletion in series [1] (oxidant Ce^4+ 5 mM) is recorded as 15 ± 2%; in series [1] (oxidant Cu^2+ 5 mM) it was 2 ± 1%; in series [1] (oxidant Fe^2+/H2O2 5 mM) it was 3 ± 1%; in series [1] (oxidant H2O2 5 mM), 0 ± 0%; in series [1] (oxidant HOCl 5 mM, air) it was 98 ± 4%; in series [1] (oxidant ONOO^− 5 mM), 7 ± 1%. Moreover, the Depletion in series [1] (oxidant PbO2 5 mM) is reported as greater than 90%; in series [1] (oxidant PbO2 5 mM, listed as Probucol) it was 99 ± 1.1%; in series [2] (oxidant AAPH 5 mM), 0 ± 0%; in series [2] (oxidant HOCl 5 mM, air) it was greater than 90%. Moreover, the “SO4^2− in aqueous phase of reaction mixture” value in series [2] stood at 139 ± 14 nmol. In addition, the “Total aortic drug concentration” value in series [3] (apoE−/− mice, high fat diet 5 months, 1% probucol, 0.02% DTBP, 0.02% BP) came out at 21.8±8.4 nmol/mg protein.
